Source: PMC12345172, “Uptake of fucosylated type I human milk oligosaccharide blocks by Bifidobacterium longum subsp. infantis” (mBio, 2025)
Like-named read-outs stand apart in the source and are kept apart here.

Key:
Blon_0883 (BiGFL-BP) [1] = target: T1, Blon_0883 (BiGFL-BP) (Bifidobacterium longum, UniProt A0AAX1LHV4); set-up: SPR (Biacore T100), immobilized Blon_0883 on CM5 chip, 25 °C, pH 6.5; kinetic and steady-state fits; details: binder
T1 construct: gene msmE_4; mature peptide, amino acids 24-460, signal peptide removed; N-terminal TEV-cleavable His tag cut; E. coli BL21(DE3)
T1 sequence (A0AAX1LHV4 24-445): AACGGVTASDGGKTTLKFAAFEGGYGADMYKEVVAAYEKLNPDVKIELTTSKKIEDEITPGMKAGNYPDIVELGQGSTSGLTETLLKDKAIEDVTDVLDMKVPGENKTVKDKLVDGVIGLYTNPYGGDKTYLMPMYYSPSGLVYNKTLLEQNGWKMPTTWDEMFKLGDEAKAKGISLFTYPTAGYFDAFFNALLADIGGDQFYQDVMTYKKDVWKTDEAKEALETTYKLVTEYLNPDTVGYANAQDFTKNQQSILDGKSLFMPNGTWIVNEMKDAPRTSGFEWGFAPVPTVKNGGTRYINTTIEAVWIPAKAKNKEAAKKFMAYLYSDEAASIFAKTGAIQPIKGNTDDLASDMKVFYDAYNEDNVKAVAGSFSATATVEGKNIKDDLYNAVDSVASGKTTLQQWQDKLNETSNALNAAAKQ
Method: (§1) Affinity of Blon_0883 to oligosaccharides was also determined using a Biacore T100 (GE Healthcare). The protein was diluted into 10 mM sodium acetate (pH 4.2) to 2.0 µM and immobilized on a CM5 sensor chip using random amine coupling kit (GE Healthcare) to a density of 3,077 response units (RU) and the sensograms were recorded at 25°C in the same buffer used for the ITC (including 150 mM NaCl and 0.005% P20 surfactant) and analyzed as described ([24]). Experiments were performed in independent duplicates in the range 3.42–2,500 nM for LNB, GNB, Lewis A triose and Blood group H antigen triose. Binding was also tested using 0.1 µM–100 mM Lac, Gal, 3FL, 3SL, DFL LNT, and di-N-acetyl-lactosamine. The mature peptide of Blon_0883 was produced and purified to electrophoretic homogeneity. The binding affinity and thermodynamics of the transport protein were analyzed using isothermal titration calorimetry (ITC) and surface plasmon resonance (SPR) (Fig. 1; Fig. S1; Table S1). Among the tested ligands, the highest affinities were measured toward LNB and GNB. The binding of both ligands was driven by favorable enthalpy, similar to other saccharide-specific SBP ([21]) (Table 1). The Lewis a (Le^a) and blood group H type 1 antigen (H1) trisaccharides were both bound with about four-fold lower affinity than the preferred LNB ligand. […] Panels A through D depict representative binding isotherms based on technical triplicates. The circles are blank and reference-corrected binding levels, and the solid lines are the fits of a one binding site model to the steady state data. Panels E and F depict the blank and reference-corrected sensograms in gray, and the green lines are the global fits of a kinetic one site binding model to the binding sensograms.

Blon_0883 (BiGFL-BP) [2] = target: T1, Blon_0883 (BiGFL-BP); assay: isothermal titration calorimetry; format: binding; details: 25 °C, pH 6.5, 10 mM sodium phosphate; one-site model; free protein in solution
Source text: isothermal titration calorimetry on Blon_0883 (BiGFL-BP)

Blon_0883 (BiGFL-BP) [3] = target: T1, Blon_0883 (BiGFL-BP); assay: biochemical; set-up: SPR (Biacore T100), immobilized Blon_0883 on CM5 chip, 25 °C, pH 6.5; kinetic and steady-state fits; details: SPR kinetic global fit; for kon: read-out: kon (×10^6 M^-1s^-1)
Method: as §1

Blon_0883 (BiGFL-BP) [4] = target: T1, Blon_0883 (BiGFL-BP); assay: surface plasmon resonance, steady state; format: binding; details: 25 °C, pH 6.5, 10 mM sodium phosphate, 150 mM NaCl, 0.005% P20; protein amine-coupled to CM5 chip
Source text: surface plasmon resonance, steady state on Blon_0883 (BiGFL-BP)

[5] = SPR kinetic global fit, read-out: Kd Kinetics

| Structure (SMILES) | Kd (Blon_0883 (BiGFL-BP) [1]; [5]) [nM] | Kd (Blon_0883 (BiGFL-BP) [1]; SPR steady-state fit) [nM] | Kd (Blon_0883 (BiGFL-BP) [2]) [nM] | koff (Blon_0883 (BiGFL-BP) [3]) [s⁻¹] | kon (Blon_0883 (BiGFL-BP) [3]) [M⁻¹ s⁻¹] | Kd (Blon_0883 (BiGFL-BP) [4]) [nM] |
| --- | --- | --- | --- | --- | --- | --- |
| CC(=O)N[C@H]1C(O)O[C@H](CO)[C@H](O)[C@@H]1O[C@@H]1O[C@H](CO)[C@H](O)[C@H](O)[C@H]1O (stereo partly drawn) [GNB, Galβ1,3GalNAc] | 42 | 62 ± 4 | 169 | 0.04 ± 0.003 | 850000 ± 4000 | – |
| CC(=O)N[C@H]1C(O)O[C@H](CO)[C@@H](O)[C@@H]1O[C@@H]1O[C@H](CO)[C@H](O)[C@H](O)[C@H]1O (stereo partly drawn) [LNB, Galβ1,3GlcNAc] | 11 | 32.5 ± 3.2 | 68.5 | 0.16 ± 0.003 | 1.46e+07 ± 30000 | – |
| CC(=O)N[C@H]1C(O)O[C@H](CO)[C@@H](O)[C@@H]1O[C@@H]1O[C@H](CO)[C@H](O)[C@H](O)[C@H]1O[C@@H]1O[C@@H](C)[C@@H](O)[C@@H](O)[C@@H]1O (stereo partly drawn) [H1] | 37 | – | – | 0.17 ± 0.002 | 4.8e+06 ± 60000 | 158 ± 9 |
| CC(=O)N[C@H]1C(O)O[C@H](CO)[C@@H](O[C@@H]2O[C@@H](C)[C@@H](O)[C@@H](O)[C@@H]2O)[C@@H]1O[C@@H]1O[C@H](CO)[C@H](O)[C@H](O)[C@H]1O (stereo partly drawn) [Le^a] | 49 | – | – | 0.14 ± 0.0005 | 3e+06 ± 10000 | 146 ± 12 |
